Measurements: ChEMBL document CHEMBL4732068, “The discovery of novel antitrypanosomal 4-phenyl-6-(pyridin-3-yl)pyrimidines” (Eur J Med Chem, 2021)
The source made the active and inactive calls. No cut-off for these calls is given here.

What was measured:
Cytochrome P450 1A2 = molecular target: T1, Cytochrome P450 1A2 (Homo sapiens, UniProt P05177); assay: Inhibition of CYP1A2 in human liver microsomes by luminescence based P450-[…] assay; assay type: ADME
T1 sequence (P05177 whole entry): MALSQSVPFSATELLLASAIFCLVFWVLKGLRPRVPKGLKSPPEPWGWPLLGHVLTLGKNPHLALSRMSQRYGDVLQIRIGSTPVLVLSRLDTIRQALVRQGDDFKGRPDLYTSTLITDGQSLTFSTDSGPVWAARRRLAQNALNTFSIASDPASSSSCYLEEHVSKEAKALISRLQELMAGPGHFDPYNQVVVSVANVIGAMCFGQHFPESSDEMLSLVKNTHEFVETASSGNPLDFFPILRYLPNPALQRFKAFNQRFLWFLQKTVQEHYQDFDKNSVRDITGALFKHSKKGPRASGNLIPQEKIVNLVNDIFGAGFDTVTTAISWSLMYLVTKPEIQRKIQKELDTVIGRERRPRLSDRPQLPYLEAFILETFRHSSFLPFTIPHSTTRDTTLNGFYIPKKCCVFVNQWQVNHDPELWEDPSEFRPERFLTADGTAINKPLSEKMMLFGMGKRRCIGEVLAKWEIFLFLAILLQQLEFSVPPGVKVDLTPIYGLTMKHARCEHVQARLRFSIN

Cytochrome P450 2C9 = Cytochrome P450 2C9 (Homo sapiens, UniProt P11712); assay: Inhibition of CYP2C9 in human liver microsomes by luminescence based P450-[…] assay
Cytochrome P450 2C19 = Cytochrome P450 2C19 (Homo sapiens, UniProt P33261); assay: Inhibition of CYP2C19 in human liver microsomes by luminescence based P450-[…] assay; assay type: ADME
[1] = molecular target: Histone deacetylase 1 (Homo sapiens) (UniProt Q13547); assay: Inhibition of recombinant human HDAC1 by fluorescence based microplate reader analysis
[2] = molecular target: Histone deacetylase 3 (Homo sapiens) (UniProt O15379); assay: Inhibition of recombinant human HDAC3 by fluorescence based microplate reader analysis
[3] = molecular target: T2, Protein deacetylase HDAC6 (Homo sapiens) (UniProt Q9UBN7); assay: Inhibition of recombinant human HDAC6 by fluorescence based microplate reader analysis
T2 sequence (whole entry): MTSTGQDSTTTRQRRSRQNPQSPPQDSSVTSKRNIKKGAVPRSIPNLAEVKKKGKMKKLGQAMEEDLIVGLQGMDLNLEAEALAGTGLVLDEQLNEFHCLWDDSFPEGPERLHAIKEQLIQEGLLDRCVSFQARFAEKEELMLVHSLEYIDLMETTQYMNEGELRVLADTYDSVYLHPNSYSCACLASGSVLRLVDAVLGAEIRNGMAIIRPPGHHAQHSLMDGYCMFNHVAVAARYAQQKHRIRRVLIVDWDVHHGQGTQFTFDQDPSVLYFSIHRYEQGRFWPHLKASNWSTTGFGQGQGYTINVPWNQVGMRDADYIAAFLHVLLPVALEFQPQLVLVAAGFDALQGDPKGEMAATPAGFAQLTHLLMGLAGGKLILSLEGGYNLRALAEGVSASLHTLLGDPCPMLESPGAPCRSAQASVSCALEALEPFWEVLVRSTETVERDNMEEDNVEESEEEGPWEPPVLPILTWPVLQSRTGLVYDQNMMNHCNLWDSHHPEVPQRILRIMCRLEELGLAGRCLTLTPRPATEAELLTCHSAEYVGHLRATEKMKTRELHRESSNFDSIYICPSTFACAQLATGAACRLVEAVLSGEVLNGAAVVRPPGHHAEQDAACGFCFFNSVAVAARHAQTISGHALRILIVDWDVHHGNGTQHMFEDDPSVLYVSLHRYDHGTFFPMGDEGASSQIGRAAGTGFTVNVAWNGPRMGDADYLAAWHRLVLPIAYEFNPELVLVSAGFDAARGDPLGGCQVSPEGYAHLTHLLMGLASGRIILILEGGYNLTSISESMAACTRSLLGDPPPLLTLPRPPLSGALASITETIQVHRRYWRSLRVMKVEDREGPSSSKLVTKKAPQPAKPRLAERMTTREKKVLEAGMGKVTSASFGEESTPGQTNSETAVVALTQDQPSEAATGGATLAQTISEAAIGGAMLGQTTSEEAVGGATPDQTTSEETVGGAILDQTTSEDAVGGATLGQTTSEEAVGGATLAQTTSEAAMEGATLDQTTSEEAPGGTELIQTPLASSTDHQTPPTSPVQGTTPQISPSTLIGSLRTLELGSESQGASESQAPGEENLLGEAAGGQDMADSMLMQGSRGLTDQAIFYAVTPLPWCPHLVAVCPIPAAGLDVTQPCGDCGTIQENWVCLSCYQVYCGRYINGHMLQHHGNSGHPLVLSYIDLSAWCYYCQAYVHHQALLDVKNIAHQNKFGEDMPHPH

Chain of Cytochrome P450 2C19 (P33261 whole entry): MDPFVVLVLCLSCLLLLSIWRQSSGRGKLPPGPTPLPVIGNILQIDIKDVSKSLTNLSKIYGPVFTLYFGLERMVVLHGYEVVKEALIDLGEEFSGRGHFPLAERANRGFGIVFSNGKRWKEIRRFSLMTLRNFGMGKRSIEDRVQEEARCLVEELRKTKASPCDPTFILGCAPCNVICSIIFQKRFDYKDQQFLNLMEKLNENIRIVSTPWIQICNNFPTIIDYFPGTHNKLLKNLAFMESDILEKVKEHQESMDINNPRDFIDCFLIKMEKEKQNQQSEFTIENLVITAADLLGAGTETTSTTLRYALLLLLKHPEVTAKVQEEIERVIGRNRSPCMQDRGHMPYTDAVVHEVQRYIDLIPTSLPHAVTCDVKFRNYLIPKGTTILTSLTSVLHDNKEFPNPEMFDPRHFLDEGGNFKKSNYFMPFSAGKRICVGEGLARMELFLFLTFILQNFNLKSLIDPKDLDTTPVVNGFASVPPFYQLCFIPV
Chain of Cytochrome P450 2C9 (P11712 whole entry): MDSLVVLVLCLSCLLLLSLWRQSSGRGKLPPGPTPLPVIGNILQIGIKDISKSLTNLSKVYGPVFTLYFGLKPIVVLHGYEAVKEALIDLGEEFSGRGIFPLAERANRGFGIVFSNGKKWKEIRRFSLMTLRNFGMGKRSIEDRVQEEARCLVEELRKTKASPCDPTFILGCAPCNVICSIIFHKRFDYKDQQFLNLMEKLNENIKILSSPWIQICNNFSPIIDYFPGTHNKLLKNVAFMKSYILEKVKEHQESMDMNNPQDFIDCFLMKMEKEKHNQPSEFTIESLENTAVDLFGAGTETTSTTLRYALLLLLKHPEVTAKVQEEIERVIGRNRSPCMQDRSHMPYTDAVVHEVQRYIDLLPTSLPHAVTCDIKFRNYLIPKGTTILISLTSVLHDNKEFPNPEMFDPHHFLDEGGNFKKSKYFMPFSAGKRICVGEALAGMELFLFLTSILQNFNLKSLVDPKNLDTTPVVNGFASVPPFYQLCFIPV
Chain of Histone deacetylase 3 (Homo sapiens) (O15379 whole entry): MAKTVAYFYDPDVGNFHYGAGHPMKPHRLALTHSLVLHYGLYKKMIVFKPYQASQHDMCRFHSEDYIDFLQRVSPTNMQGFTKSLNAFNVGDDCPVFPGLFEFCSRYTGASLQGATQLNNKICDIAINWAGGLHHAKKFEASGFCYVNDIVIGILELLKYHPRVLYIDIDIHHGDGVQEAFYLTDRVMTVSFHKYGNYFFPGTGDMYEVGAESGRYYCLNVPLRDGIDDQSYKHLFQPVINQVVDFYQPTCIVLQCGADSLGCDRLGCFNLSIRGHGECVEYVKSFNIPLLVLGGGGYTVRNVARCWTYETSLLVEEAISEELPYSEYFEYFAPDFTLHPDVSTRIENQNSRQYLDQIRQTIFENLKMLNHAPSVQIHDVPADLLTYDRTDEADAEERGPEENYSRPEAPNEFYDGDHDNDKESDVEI
Chain of Histone deacetylase 1 (Homo sapiens) (Q13547 whole entry): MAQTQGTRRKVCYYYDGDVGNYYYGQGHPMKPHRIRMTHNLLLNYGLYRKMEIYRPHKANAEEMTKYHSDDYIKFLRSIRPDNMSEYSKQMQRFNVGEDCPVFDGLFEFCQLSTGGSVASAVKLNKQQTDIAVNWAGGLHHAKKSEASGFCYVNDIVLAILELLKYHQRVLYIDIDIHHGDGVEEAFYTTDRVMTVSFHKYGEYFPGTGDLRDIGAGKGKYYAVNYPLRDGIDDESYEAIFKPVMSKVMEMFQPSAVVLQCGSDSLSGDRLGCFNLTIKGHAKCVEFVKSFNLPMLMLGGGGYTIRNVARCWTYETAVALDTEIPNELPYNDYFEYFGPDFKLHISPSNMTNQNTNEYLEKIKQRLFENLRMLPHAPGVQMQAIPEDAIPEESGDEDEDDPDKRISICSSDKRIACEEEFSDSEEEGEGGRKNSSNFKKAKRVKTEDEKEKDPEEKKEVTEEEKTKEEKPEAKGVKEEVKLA

inhibition (INH) (Cytochrome P450 1A2): Active
inhibition (INH) (Cytochrome P450 2C9): Active
inhibition (INH) (Cytochrome P450 2C19): Active
inhibition [1]: inactive
inhibition [2]: inactive
inhibition [3]: inactive
Structure (SMILES): COc1ccccc1-c1cc(-c2cccnc2)nc(N)n1
